According to ChEMBL document CHEMBL1143512, “Antitubercular agents. Part 2: new thiolactomycin analogues active against Mycobacterium tuberculosis” (2005):

How the values were obtained:
Assay type in all cases: functional
[1] = tested on: Mycobacterium tuberculosis; assay: Minimum inhibitory concentration against Mycobacterium tuberculosis H37Rv ATCC 27294
Mycobacterium avium = assay: Minimum inhibitory concentration against Mycobacterium avium ATCC 49601
[2] = tested on: Mycobacterium intracellulare; assay: Minimum inhibitory concentration against Mycobacterium intracellular ATCC 13950
[3] = tested on: Mycobacterium tuberculosis; assay: Minimum inhibitory concentration against Mycobacterium tuberculosis sensitive clinical isolates
[4] = tested on: Mycobacterium tuberculosis; assay: Minimum inhibitory concentration against Mycobacterium tuberculosis sensitive clinical isolates; Range: 1-4 ug/ml
[5] = tested on: Mycobacterium tuberculosis; assay: Minimum inhibitory concentration against Mycobacterium tuberculosis sensitive clinical isolates; Range:4-16 ug/ml
[6] = tested on: Mycobacterium tuberculosis; assay: Minimum inhibitory concentration against Mycobacterium tuberculosis sensitive clinical isolates; Range: 0.125-0.25 ug/ml

Measured: MIC

CC1=C(OCCCCCN2CCOCC2)C(C)SC1=O (stereo not given)
> 16 µg/mL: [1] | Mycobacterium avium | [2] | [3]

CC1=C(OCCCCCCN2CCOCC2)C(C)SC1=O (stereo not given)
> 16 µg/mL: [1] | Mycobacterium avium | [2] | [3]

CC1=C(OCCCCCCCCN2CCN(C)CC2)C(C)SC1=O (stereo not given)
> 16 µg/mL: [1] | Mycobacterium avium | [2] | [3]

CC1=C(OCCCCCCCCN2CCOCC2)C(C)SC1=O (stereo not given)
> 16 µg/mL: [1] | Mycobacterium avium | [2] | [3]

COC(=O)CSCCCCCCCCOC1=C(C)C(=O)SC1C (stereo not given)
8 µg/mL: Mycobacterium avium
4 µg/mL: [4] | [2]
1 µg/mL: [1]

CC1=C(OCCCCCCCCCCBr)C(C)SC1=O (stereo not given)
16 µg/mL: [5]
> 16 µg/mL: Mycobacterium avium | [2]
4 µg/mL: [1]

CC1=C(OCCCCN2CCOCC2)C(C)SC1=O (stereo not given)
> 16 µg/mL: [1] | Mycobacterium avium | [2] | [3]

CC1=C(OCCCN2CCN(C)CC2)C(C)SC1=O (stereo not given)
> 16 µg/mL: [1] | Mycobacterium avium | [2] | [3]

CC1=C(OCCCCN2CCN(C)CC2)C(C)SC1=O (stereo not given)
> 16 µg/mL: [1] | Mycobacterium avium | [2] | [3]

CC1=C(OCCCCCCN2CCN(C)CC2)C(C)SC1=O (stereo not given)
> 16 µg/mL: [1] | Mycobacterium avium | [2] | [3]

CC1=C(OCCCCCCCCBr)C(C)SC1=O (stereo not given)
> 16 µg/mL: [1] | Mycobacterium avium | [2] | [3]

CC1=C(OCCCBr)C(C)SC1=O (stereo not given)
> 16 µg/mL: [1] | Mycobacterium avium | [2] | [3]

CC1=C(OCCCCCCBr)C(C)SC1=O (stereo not given)
> 16 µg/mL: [1] | Mycobacterium avium | [2] | [3]

CC1=C(OCCCCCBr)C(C)SC1=O (stereo not given)
> 16 µg/mL: [1] | Mycobacterium avium | [2] | [3]

CC1=C(OCCCN2CCOCC2)C(C)SC1=O (stereo not given)
> 16 µg/mL: [1] | Mycobacterium avium | [2] | [3]

CC1=C(OCCCCCCCCCCN2CCOCC2)C(C)SC1=O (stereo not given)
> 16 µg/mL: [1] | Mycobacterium avium | [2] | [3]

COC(=O)CSCCCOC1=C(C)C(=O)SC1C (stereo not given)
> 16 µg/mL: [1] | Mycobacterium avium | [2] | [3]

COC(=O)CSCCCCOC1=C(C)C(=O)SC1C (stereo not given)
> 16 µg/mL: [1] | Mycobacterium avium | [2] | [3]

COC(=O)CSCCCCCCCCCCOC1=C(C)C(=O)SC1C (stereo not given)
> 16 µg/mL: [1] | Mycobacterium avium | [2] | [3]

CC1=C(OCCCCCN2CCN(C)CC2)C(C)SC1=O (stereo not given)
> 16 µg/mL: [1] | Mycobacterium avium | [2] | [3]

COC(=O)CSCCCCCCOC1=C(C)C(=O)SC1C (stereo not given)
> 16 µg/mL: [1] | Mycobacterium avium | [2] | [3]

NNC(=O)c1ccncc1 [ISONIAZID]
0.25 µg/mL: [6] | [1]
> 16 µg/mL: Mycobacterium avium
8 µg/mL: [2]

COC(=O)CSCCCCCOC1=C(C)C(=O)SC1C (stereo not given)
> 16 µg/mL: [1] | Mycobacterium avium | [2] | [3]

CC1=C(OCCCCBr)C(C)SC1=O (stereo not given)
> 16 µg/mL: [1] | Mycobacterium avium | [2] | [3]

CC1=C(OCCCCCCCCCCN2CCN(C)CC2)C(C)SC1=O (stereo not given)
> 16 µg/mL: [1] | Mycobacterium avium | [2] | [3]
